# Measured values reported in patent publication US20060276464A1, “Diarylsulfone sulfonamides and use thereof” (Wyeth, priority 2005, published 2006).
# Where two headings read alike, the source gives them in different places.
# Assays:
# [1] = biological target: T1, SFRP-1 (Homo sapiens, UniProt Q8N474); test: Fluorescence polarization binding assay (competitive displacement of a probe compound from SFRP-1); details: fluorescence anisotropy, 45 nM SFRP-1, 20 nM probe;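 note: test compound competes with a fluorescent probe held by SFRP-1, seen as a drop in probe anisotropy after incubation in darkness, with anisotropy as function of rising compound dose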
# T1 sequence (Q8N474 32-314): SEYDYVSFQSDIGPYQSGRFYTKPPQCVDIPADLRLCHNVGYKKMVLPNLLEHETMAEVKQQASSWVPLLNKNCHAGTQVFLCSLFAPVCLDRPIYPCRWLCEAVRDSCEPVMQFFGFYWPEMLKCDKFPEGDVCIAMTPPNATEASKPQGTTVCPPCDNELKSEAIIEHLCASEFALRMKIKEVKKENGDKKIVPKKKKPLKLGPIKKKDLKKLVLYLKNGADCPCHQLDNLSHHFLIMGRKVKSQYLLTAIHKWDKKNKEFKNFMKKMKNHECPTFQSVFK
# [2] = biological target: T1, SFRP-1; test: Cell-based assay for in vitro measurement of SFRP-1/SARP2 antagonist activity (U2OS cells co-transfected with 16x TCF-tk-Luciferase reporter, Wnt and hSFRP-1); details: for fold induction at 10 µM / fold induction at 15 µM: U2OS;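 for all read-outs here: U2OS cells co-transfected with a TCF-tk luciferase reporter, a Wnt vector, hSFRP-1 or empty vector and CMV-βgal, luciferase luminescence read in cell lysates alongside βgal activity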
# [3] = read-out: Fold Induction with SFRP-1, U2OS cells, single dose 10 μM, luciferase reporter, fold induction over SFRP-1 control
# [4] = read-out: Fold Induction with SFRP-1, Conc 15 μM, single dose, luciferase reporter, fold induction over SFRP-1 control, cells with SFRP-1
# [5] = read-out: Fold Induction without SFRP-1, Conc 15 μM, single dose, luciferase reporter, cells without SFRP-1 (specificity control)
Structure (SMILES),IC50 [1],EC50 [2],"fold induction at 10 µM [2, 3]",other results
"CN(CCNS(=O)(=O)c1cc(S(=O)(=O)c2ccccc2)ccc1C(F)(F)F)C(=O)c1ccccc1 [Example 819, N-Methyl-N-[2-({[5-(phenylsulfonyl)-2-(trifluoromethyl)phenyl]sulfonyl}amino)ethyl]benzamide]",0.22 µM,1.57 µM,3.3,–
"CN(CCNS(=O)(=O)c1cc(S(=O)(=O)c2ccccc2)ccc1C(F)(F)F)C(=O)N[C@@H]1CCN(C(=O)OC(C)(C)C)C1 [Example 990, tert-butyl (3R)-3-[({methyl[2-({[5-(phenylsulfonyl)-2-(trifluoromethyl)phenyl]sulfonyl}amino)ethyl]amino}carbonyl)amino]pyrrolidine-1-carboxylate]",0.13 µM,0.577 µM,–,–
"CN(CCNS(=O)(=O)c1cc(S(=O)(=O)c2ccccc2)ccc1C(F)(F)F)C(=O)NC1CCNCC1 [Example 881, N-(2-{methyl[(piperidin-4-ylamino)carbonyl]amino}ethyl)-5-(phenylsulfonyl)-2-(trifluoromethyl)benzenesulfonamide]",0.28 µM,0.85 µM,3.4,–
"COC(=O)C1CCC(NS(=O)(=O)c2cc(S(=O)(=O)c3ccccc3)ccc2C(C)C)CC1 (stereo not drawn) [Example 933, methyl 4-({[2-isopropyl-5-(phenylsulfonyl)phenyl]sulfonyl}amino)cyclohexanecarboxylate]",6 µM,1.74 µM,2.5,–
"CCc1ccc(S(=O)(=O)c2ccc(F)cc2)cc1S(=O)(=O)NCCn1ccnc1 [Example 297, 2-ethyl-5-[(4-fluorophenyl)sulfonyl]-N-[2-(1H-imidazol-1-yl)ethyl]benzenesulfonamide]",0.4 µM,–,–,"fold induction at 15 µM ([2]; read-out: Fold Induction with SFRP-1, Conc 15 μM, with SFRP-1, fold induction over SFRP-1 control, single dose): 4.3; fold induction at 15 µM ([2]; read-out: Fold Induction without SFRP-1, Conc 15 μM, without SFRP-1, single dose): 1.4"
"CCCCNC(=S)N1CCC(NS(=O)(=O)c2cc(S(=O)(=O)c3ccc(F)cc3)ccc2C(C)C)CC1 [Example 694, N-butyl-4-[({5-[(4-fluorophenyl)sulfonyl]-2-isopropylphenyl}sulfonyl)amino]piperidine-1-carbothioamide]",2.9 µM,8.7 µM,2.6,–
"O=C(O)CN1CCCC1CCNS(=O)(=O)c1cc(S(=O)(=O)c2ccccc2)ccc1C(F)(F)F (stereo not drawn) [Example 918, {2-[2-({[5-(phenylsulfonyl)-2-(trifluoromethyl)phenyl]sulfonyl}amino)ethyl]pyrrolidin-1-yl}acetic acid]",4 µM,2.98 µM,1.6,–
"CCc1ccc(S(=O)(=O)c2ccccc2)cc1S(=O)(=O)NC1CCNCC1 [Example 921, 2-ethyl-5-(phenylsulfonyl)-N-piperidin-4-ylbenzenesulfonamide]",4 µM,2.36 µM,2.5,–
"CC(C)(C)OC(=O)N1CCC(NS(=O)(=O)c2cc(S(=O)(=O)c3ccc(F)cc3)ccc2C(F)(F)F)CC1 [Example 818, tert-butyl 4-({[5-[(4-fluorophenyl)sulfonyl]-2-(trifluoromethyl)phenyl]sulfonyl}amino)piperidine-1-carboxylate]",0.3 µM,1.32 µM,2.6,–
"COc1ccc(S(=O)(=O)c2ccc(C(F)(F)F)c(S(=O)(=O)NC3CCNCC3)c2)cc1 [Example 999, 5-[(4-methoxyphenyl)sulfonyl]-N-piperidin-4-yl-2-(trifluoromethyl)benzenesulfonamide]",0.8 µM,0.789 µM,–,–
"O=S(=O)(NCCc1ccccn1)c1cc(S(=O)(=O)c2ccccc2)ccc1Br [Example 592, 2-bromo-5-(phenylsulfonyl)-N-(2-pyridin-2-ylethyl)benzenesulfonamide]",1 µM,–,–,"fold induction at 15 µM [2, 4]: 3.1; fold induction at 15 µM [2, 5]: 1.1"
"CN(CCNS(=O)(=O)c1cc(S(=O)(=O)c2ccccc2)ccc1C(F)(F)F)C(=O)N[C@H]1CCCN(C(=O)OC(C)(C)C)C1 [Example 1010, tert-butyl (3S)-3-[({methyl[2-({[5-(phenylsulfonyl)-2-(trifluoromethyl)phenyl]sulfonyl}amino)ethyl]amino}carbonyl)amino]piperidine-1-carboxylate]",0.6 µM,2 µM,–,–
"O=C(O)CN1CCC(CNS(=O)(=O)c2cc(S(=O)(=O)c3ccccc3)ccc2C(F)(F)F)CC1 [Example 941, {4-[({[5-(phenylsulfonyl)-2-(trifluoromethyl)phenyl]sulfonyl}amino)methyl]piperidin-1-yl}acetic acid]",0.7 µM,1.34 µM,3.2,–
"Cn1ccc2cc(S(=O)(=O)c3ccc(Cl)c(S(=O)(=O)NC4CCOCC4)c3)ccc21 [Example 607, 2-chloro-5-[(1-methyl-1H-indol-5-yl)sulfonyl]-N-(tetrahydro-2H-pyran-4-yl)benzenesulfonamide]",2 µM,–,–,"fold induction at 15 µM [2, 4]: 2.3; fold induction at 15 µM [2, 5]: 1.1"
"O=S(=O)(NCCC1CCCN1)c1cc(S(=O)(=O)c2ccccc2)ccc1C(F)(F)F (stereo not drawn) [Example 913, 5-(phenylsulfonyl)-N-(2-pyrrolidin-2-ylethyl)-2-(trifluoromethyl)benzenesulfonamide]",3 µM,7.01 µM,3.1,–
"CC(C)(C)c1ccc(C(=O)N2CCC(NS(=O)(=O)c3cc(S(=O)(=O)c4cccc(Cl)c4)ccc3C(F)(F)F)CC2)cc1 [Example 753, N-[1-(4-tert-butylbenzoyl)piperidin-4-yl]-5-[(3-chlorophenyl)sulfonyl]-2-(trifluoromethyl)benzenesulfonamide]",0.7 µM,–,3.8,–
"CC(C)COC(=O)N(C)CCNS(=O)(=O)c1cc(S(=O)(=O)c2ccccc2)ccc1C(F)(F)F [Example 870, isobutyl methyl[2-({[5-(phenylsulfonyl)-2-(trifluoromethyl)phenyl]sulfonyl}amino)ethyl]carbamate]",0.8 µM,–,2.5,–
"CN(CCNS(=O)(=O)c1cc(S(=O)(=O)c2ccccc2)ccc1C(F)(F)F)C(=O)Oc1ccc(Br)cc1 [Example 873, 4-bromophenyl methyl[2-({[5-(phenylsulfonyl)-2-(trifluoromethyl)phenyl]sulfonyl}amino)ethyl]carbamate]",1.6 µM,–,–,fold induction at 10 µM ([2]; read-out: Fold Induction with SFRP-1): 2.1
"O=C(O)c1cccc(-c2ccc(CNS(=O)(=O)c3cc(S(=O)(=O)c4ccccc4)ccc3C(F)(F)F)cc2)c1 [Example 976, 4′-[({[5-(phenylsulfonyl)-2-(trifluoromethyl)phenyl]sulfonyl}amino)methyl]biphenyl-3-carboxylic acid]",6 µM,–,–,–
"N#Cc1cccc(N2CCC(NS(=O)(=O)c3cc(S(=O)(=O)c4ccccc4)ccc3C(F)(F)F)CC2)c1 [Example 986, N-[1-(3-cyanophenyl)piperidin-4-yl]-5-(phenylsulfonyl)-2-(trifluoromethyl)benzenesulfonamide]",0.8 µM,–,–,–
"CN(CCNS(=O)(=O)c1cc(S(=O)(=O)c2ccccc2)ccc1C(F)(F)F)C(=O)N(C)C1CCN(C(=O)OC(C)(C)C)CC1 [Example 989, tert-butyl 4-[methyl({methyl[2-({[5-(phenylsulfonyl)-2-(trifluoromethyl)phenyl]sulfonyl}amino)ethyl]amino}carbonyl)amino]piperidine-1-carboxylate]",3 µM,–,–,–
"CN(C(=O)NCCNS(=O)(=O)c1cc(S(=O)(=O)c2ccccc2)ccc1C(F)(F)F)C1CCN(C(=O)OC(C)(C)C)CC1 [Example 1045, tert-butyl 4-[methyl({[2-({[5-(phenylsulfonyl)-2-(trifluoromethyl)phenyl]sulfonyl}amino)ethyl]amino}carbonyl)amino]piperidine-1-carboxylate]",4 µM,–,–,–
"CC(C)C(CO)NS(=O)(=O)c1cc(S(=O)(=O)c2ccccc2)ccc1C(F)(F)F (stereo not drawn) [Example 769, N-[1-(hydroxymethyl)-2-methylpropyl]-5-(phenylsulfonyl)-2-(trifluoromethyl)benzenesulfonamide]",13 µM,–,–,–
"O=S(=O)(NCc1cccc(Br)c1)c1cc(S(=O)(=O)c2ccccc2)ccc1C(F)(F)F [Example 994, N-(3-bromobenzyl)-5-(phenylsulfonyl)-2-(trifluoromethyl)benzenesulfonamide]",2.3 µM,–,–,–
"CN(CCNS(=O)(=O)c1cc(S(=O)(=O)c2ccccc2)ccc1C(F)(F)F)CCC(=O)O [Example 982, N-methyl-N-[2-({[5-(phenylsulfonyl)-2-(trifluoromethyl)phenyl]sulfonyl}amino)ethyl]-β-alanine]",8 µM,–,–,–
"CN(CCNS(=O)(=O)c1cc(S(=O)(=O)c2ccccc2)ccc1C(F)(F)F)CC(=O)O [Example 981, N-methyl-N-[2-({[5-(phenylsulfonyl)-2-(trifluoromethyl)phenyl]sulfonyl}amino)ethyl]glycine]",13 µM,–,–,–
"CN(CCCNS(=O)(=O)c1cc(S(=O)(=O)c2ccccc2)ccc1C(F)(F)F)C(=O)N1CCN(C(=O)OC(C)(C)C)CC1 [Example 974, tert-butyl 4-({methyl[3-({[5-(phenylsulfonyl)-2-(trifluoromethyl)phenyl]sulfonyl}amino)propyl]amino}carbonyl)piperazine-1-carboxylate]",4 µM,–,–,–
